The assay concerns MDA-231 cancer cells. In words: Inhibition of proliferation assay: cell confluence (IncuCyte live cell imaging). The format is cell-based. As to conditions: MDA-231 cells, IncuCyte imaging over 4-5 d. The source says:
The confluence value is a surrogate for cell proliferation and growth. The value is expressed as a percent confluence, which represents the fraction of culture dish-surface that is occupied by cells. As the number of cells in the dish increases over time due to proliferation, so will their coverage of that surface increase. Expansion of the cell population on the cell culture-dish surface and confluence have mostly a linear relationship until the cells on the plate surface begin to reach saturation or maximum density. Confluence is determined based on image analysis. Image based software can identify objects in the image field base on changes to pixel density in a grey scale image. The software can then assign a mask to those pixels within the object. Objects can be ‘gated’ out based on size and shape. To determine cell confluence, images of cells are first masked as objects. The surface area of the image that is masked is measured and compared to the total surface area of the culture dish surface to obtain a percent confluence. MDA-231 cancer cells were obtained from ATCC. Cells were cultured in Dulbecco's Modified Eagle Medium (DMEM) supplemented with 10% Fetal Bovine Serum (FBS), 2 mM Glutamax, 1 mM Non Essential Amino Acid (NEAA) solution and 1 mM sodium pyruvate. […] Final DMSO concentrations were ≤0.1%. Images were acquired with an IncuCyte Live Cell Imaging microscopy (Essen Bioscience) at every 3 h under cell culture conditions with 10× objective over 4-5 d. Cell confluence was calculated from one field of view per well using the IncuCyte in-built algorithm. Relative confluence values were obtained by normalising each value to the time zero value in each sample.

In the case of `CC[C@H]1OC(=O)[C@H](C)[C@@H](O[C@H]2C[C@@](C)(OC)[C@@H](O)[C@H](C)O2)[C@H](C)[C@@H](O[C@@H]2O[C@H](C)C[C@H](N(C)C)[C@H]2O)[C@](C)(O)C[C@@H](C)CN(C)[C@H](C)[C@@H](O)[C@]1(C)O` [Azithromycin], the “% Confluence” value runs as follows: (compound at 10 μM) 99.1%; (compound at 100 μM) 17%.

`CC[C@H]1OC(=O)[C@H](C)[C@@H](O[C@H]2C[C@@](C)(OC)[C@@H](O)[C@H](C)O2)[C@H](C)[C@@H](O[C@@H]2O[C@H](C)C[C@H](N(C)C)[C@H]2O)[C@](C)(O)C[C@@H](C)CN(C(=O)CCCCCCCCCCCCC[P+](c2ccccc2)(c2ccccc2)c2cnn(C)c2)[C@H](C)[C@@H](O)[C@]1(C)O.[Cl-]` [Example 1, {14-[(2R,3S,4R,5R,8R,10R,11R,12S,13S,14R)-11-{[(2S,3R,4S,6R)-4-(dimethylamino)-3-hydroxy-6-methyloxan-2-yl]oxy}-2-ethyl-3,4,10-trihydroxy-13-{[(2R,4R,5S,6S)-5-hydroxy-4-methoxy-4,6-dimethyloxan-2-yl]oxy}-3,5,8,10,12,14-hexamethyl-15-oxo-1-oxa-6-azacyclopentadecan-6-yl]-14-oxotetradecyl}(1-methyl-1H-pyrazol-4-yl)diphenylphosphonium chloride]: under “compound at 10 μM”, the “% Confluence” value is 4.3%. Take `CC[C@H]1OC(=O)[C@H](C)[C@@H](O[C@H]2C[C@@](C)(OC)[C@@H](O)[C@H](C)O2)[C@H](C)[C@@H](O[C@@H]2O[C@H](C)C[C@H](N(C)C)[C@H]2O)[C@](C)(O)C[C@@H](C)CN(C(=O)CCCCCCCCCCCC[P+](c2ccccc2)(c2ccccc2)c2cnn(C(C)C)c2)[C@H](C)[C@@H](O)[C@]1(C)O` [Example 2, {13-[(2R,3S,4R,5R,8R,10R,11R,12S,13S,14R)-11-{[(2S,3R,4S,6R)-4-(dimethylamino)-3-hydroxy-6-methyloxan-2-yl]oxy}-2-ethyl-3,4,10-trihydroxy-13-{[(2R,4R,5S,6S)-5-hydroxy-4-methoxy-4,6-dimethyloxan-2-yl]oxy}-3,5,8,10,12,14-hexamethyl-15-oxo-1-oxa-6-azacyclopentadecan-6-yl]-13-oxotridecyl}diphenyl[1-(propan-2-yl)-1H-pyrazol-4-yl]phosphonium chloride]: for the setting “compound at 10 μM”, the “% Confluence” value amounted to 5.1%. On to `CC[C@H]1OC(=O)[C@H](C)[C@@H](O[C@H]2C[C@@](C)(OC)[C@@H](O)[C@H](C)O2)[C@H](C)[C@@H](O[C@@H]2O[C@H](C)C[C@H](N(C)C)[C@H]2O)[C@](C)(O)C[C@@H](C)CN(C(=O)CCCCCCCCCCC[P+](c2ccccc2)(c2ccccc2)c2cnn(C(C)(C)C)c2)[C@H](C)[C@@H](O)[C@]1(C)O` [Example 3, (1-tert-butyl-1H-pyrazol-4-yl)({12-[(2R,3S,4R,5R,8R,10R,11R,12S,13S,14R)-11-{[(2S,3R,4S,6R)-4-(dimethylamino)-3-hydroxy-6-methyloxan-2-yl]oxy}-2-ethyl-3,4,10-trihydroxy-13-{[(2R,4R,5S,6S)-5-hydroxy-4-methoxy-4,6-dimethyloxan-2-yl]oxy}-3,5,8,10,12,14-hexamethyl-15-oxo-1-oxa-6-azacyclopentadecan-6-yl]-12-oxododecyl})diphenylphosphonium chloride], for which the “% Confluence” value (compound at 10 μM) is given as 4%. The same measure, in the same setting: the value for `CC[C@H]1OC(=O)[C@H](C)[C@@H](O[C@H]2C[C@@](C)(OC)[C@@H](O)[C@H](C)O2)[C@H](C)[C@@H](O[C@@H]2O[C@H](C)C[C@H](N(C)C)[C@H]2O)[C@](C)(O)C[C@@H](C)CN(C(=O)CCCCCCCCCCC[P+](c2ccccc2)(c2ccccc2)c2cnn(C3CCC3)c2)[C@H](C)[C@@H](O)[C@]1(C)O.[Cl-]` [Example 4, (1-cyclobutyl-1H-pyrazol-4-yl)({12-[(2R,3S,4R,5R,8R,10R,11R,12S,13S,14R)-11-{[(2S,3R,4S,6R)-4-(dimethylamino)-3-hydroxy-6-methyloxan-2-yl]oxy}-2-ethyl-3,4,10-trihydroxy-13-{[(2R,4R,5S,6S)-5-hydroxy-4-methoxy-4,6-dimethyloxan-2-yl]oxy}-3,5,8,10,12,14-hexamethyl-15-oxo-1-oxa-6-azacyclopentadecan-6-yl]-12-oxododecyl})diphenylphosphonium chloride] was 4.4%. Consider `CC[C@H]1OC(=O)[C@H](C)[C@@H](O[C@H]2C[C@@](C)(OC)[C@@H](O)[C@H](C)O2)[C@H](C)[C@@H](O[C@@H]2O[C@H](C)C[C@H](N(C)C)[C@H]2O)[C@](C)(O)C[C@@H](C)CN(C(=O)CCCCCCC[P+](c2cc(C)cc(C)c2)(c2cc(C)cc(C)c2)c2cnn(C(C)C)c2)[C@H](C)[C@@H](O)[C@]1(C)O.[Cl-]` [Example 5, {8-[(2R,3S,4R,5R,8R,10R,11R,12S,13S,14R)-11-{[(2S,3R,4S,6R)-4-(dimethylamino)-3-hydroxy-6-methyloxan-2-yl]oxy}-2-ethyl-3,4,10-trihydroxy-13-{[(2R,4R,5S,6S)-5-hydroxy-4-methoxy-4,6-dimethyloxan-2-yl]oxy}-3,5,8,10,12,14-hexamethyl-15-oxo-1-oxa-6-azacyclopentadecan-6-yl]-8-oxooctyl}bis(3,5-dimethylphenyl)[1-(propan-2-yl)-1H-pyrazol-4-yl]phosphonium chloride], for which the “% Confluence” value (compound at 10 μM) is recorded as 23.1%. For `CC[C@H]1OC(=O)[C@H](C)[C@@H](O[C@H]2C[C@@](C)(OC)[C@@H](O)[C@H](C)O2)[C@H](C)[C@@H](O[C@@H]2O[C@H](C)C[C@H](N(C)C)[C@H]2O)[C@](C)(O)C[C@@H](C)CN(C(=O)CCCCCC[P+](c2cc(C)cc(C)c2)(c2cc(C)cc(C)c2)c2cnn(C(C)C)c2)[C@H](C)[C@@H](O)[C@]1(C)O.[Cl-]` [Example 6, {7-[(2R,3S,4R,5R,8R,10R,11R,12S,13S,14R)-11-{[(2S,3R,4S,6R)-4-(dimethylamino)-3-hydroxy-6-methyloxan-2-yl]oxy}-2-ethyl-3,4,10-trihydroxy-13-{[(2R,4R,5S,6S)-5-hydroxy-4-methoxy-4,6-dimethyloxan-2-yl]oxy}-3,5,8,10,12,14-hexamethyl-15-oxo-1-oxa-6-azacyclopentadecan-6-yl]-7-oxoheptyl}bis(3,5-dimethylphenyl)[1-(propan-2-yl)-1H-pyrazol-4-yl]phosphonium chloride], the “% Confluence” value (compound at 10 μM) came out at 15.3%. On to `CC[C@H]1OC(=O)[C@H](C)[C@@H](O[C@H]2C[C@@](C)(OC)[C@@H](O)[C@H](C)O2)[C@H](C)[C@@H](O[C@@H]2O[C@H](C)C[C@H](N(C)C)[C@H]2O)[C@](C)(O)C[C@@H](C)CN(C(=O)CCCCCC[P+](c2cc(C)cc(C)c2)(c2cc(C)cc(C)c2)c2cc(C)cc(C)c2)[C@H](C)[C@@H](O)[C@]1(C)O.[Cl-]` [Example 7, {7-[(2R,3S,4R,5R,8R,10R,11R,12S,13S,14R)-11-{[(2S,3R,4S,6R)-4-(dimethylamino)-3-hydroxy-6-methyloxan-2-yl]oxy}-2-ethyl-3,4,10-trihydroxy-13-{[(2R,4R,5S,6S)-5-hydroxy-4-methoxy-4,6-dimethyloxan-2-yl]oxy}-3,5,8,10,12,14-hexamethyl-15-oxo-1-oxa-6-azacyclopentadecan-6-yl]-7-oxoheptyl}tris(3,5-dimethylphenyl)phosphonium chloride], for which the “% Confluence” value (compound at 10 μM) was determined as 4.6%. Same read-out and setting: the same measure for `CC[C@H]1OC(=O)[C@H](C)[C@@H](O[C@H]2C[C@@](C)(OC)[C@@H](O)[C@H](C)O2)[C@H](C)[C@@H](O[C@@H]2O[C@H](C)C[C@H](N(C)C)[C@H]2O)[C@](C)(O)C[C@@H](C)CN(C(=O)CCCCCCCCCCCCC[P+](c2ccccc2)(c2ccccc2)C2CCOCC2)[C@H](C)[C@@H](O)[C@]1(C)O.[Cl-]` [Example 8, {14-[(2R,3S,4R,5R,8R,10R,11R,12S,13S,14R)-11-{[(2S,3R,4S,6R)-4-(dimethylamino)-3-hydroxy-6-methyloxan-2-yl]oxy}-2-ethyl-3,4,10-trihydroxy-13-{[(2R,4R,5S,6S)-5-hydroxy-4-methoxy-4,6-dimethyloxan-2-yl]oxy}-3,5,8,10,12,14-hexamethyl-15-oxo-1-oxa-6-azacyclopentadecan-6-yl]-14-oxotetradecyl}(oxan-4-yl)diphenylphosphonium chloride]: 5.5%; for `CC[C@H]1OC(=O)[C@H](C)[C@@H](O[C@H]2C[C@@](C)(OC)[C@@H](O)[C@H](C)O2)[C@H](C)[C@@H](O[C@@H]2O[C@H](C)C[C@H](N(C)C)[C@H]2O)[C@](C)(O)C[C@@H](C)CN(C(=O)CCCCCCCCCCCC[P+](C2CCCC2)(C2CCCC2)C2CCCC2)[C@H](C)[C@@H](O)[C@]1(C)O.[Cl-]` [Example 9, tricyclopentyl({13-[(2R,3S,4R,5R,8R,10R,11R,12S,13S,14R)-11-{[(2S,3R,4S,6R)-4-(dimethylamino)-3-hydroxy-6-methyloxan-2-yl]oxy}-2-ethyl-3,4,10-trihydroxy-13-{[(2R,4R,5S,6S)-5-hydroxy-4-methoxy-4,6-dimethyloxan-2-yl]oxy}-3,5,8,10,12,14-hexamethyl-15-oxo-1-oxa-6-azacyclopentadecan-6-yl]-13-oxotridecyl})phosphonium chloride]: 4%.
